One assay concerns sugarcane borer larvae. The assay is described as follows: Laboratory leaf dip test on sugarcane borer larvae. As to conditions: Diatraea saccharalis, foliar, Btk 0.54 ppm, chlorantraniliprole 0.0009 ppm, read-out: % Efficacy. The assay is classed as in vivo. As to the method:
(§1) DiPel® DF was used as the source of Bacillus thuringiensis subsp. kurstaki and Coragen® was used as the source of chlorantraniliprole. The present invention is not limited to the products or formulation types used herein. In each example below, the studies were conducted as follows.
(§2) For these tests, standardized laboratory leaf dip methods were used to inoculate plant material with treatment(s). Dry, treated leaves were placed into Petri dishes (100×25 mm) containing filter paper wetted with 500 μl of distilled H2O (“dH2O”). Each dish was then infested with between 5 and 10 larvae, dependent on species. Efficacy ratings were taken at specified intervals. Synergy ratings were calculated for each test.
(§3) % Cexp=A+B−(AB/100), where % Cexp is the expected efficacy and “in which A and B are the control levels given by the single [insecticides]. If the ratio between the experimentally observed efficacy of the mixture Cobs and the expected efficacy of the mixture is greater than 1, synergistic interactions are present in the mixture.” (Gisi, Synergisitic Interaction of Fungicides in Mixtures, The American Phytopathological Society, 86:11, 1273-1279,1996). Adopting a conservative approach, Applicant determined synergy to be present at ratios of >1.15.

Assay [1] deals with southwestern corn borer larvae. Put plainly: Laboratory leaf dip test on southwestern corn borer larvae. The assay is classed as in vivo. As to conditions: foliar, 72 h after treatment, Btk 0.54 ppm, chlorantraniliprole 0.0009 ppm, read-out: % Efficacy. The protocol:
as §1, §2, §3

A further assay relates to diamondback moth larvae. Put plainly: Laboratory leaf dip test on diamondback moth larvae. The assay is classed as in vivo. As to conditions: Plutella xylostella, foliar, 24 h after treatment, Btk 0.54 ppm, chlorantraniliprole 0.0009 ppm, read-out: % Efficacy. As to the method: The following examples illustrate the synergy of Bacillus thuringiensis subsp. kurstaki and chlorantraniliprole when controlling diamondback moth, beet armyworm, sugarcane borer, soybean looper, and corn earworm. DiPel® DF was used as the source of Bacillus thuringiensis subsp. kurstaki and Coragen® was used as the source of chlorantraniliprole. The present invention is not limited to the products or formulation types used herein. In each example below, the studies were conducted as follows.
For these tests, standardized laboratory leaf dip methods were used to inoculate plant material with treatment(s). Dry, treated leaves were placed into Petri dishes (100×25 mm) containing filter paper wetted with 500 μl of distilled H2O (“dH2O”). […] Synergy ratings were calculated for each test. […]
% Cexp=A+B−(AB/100), where % Cexp is the expected efficacy and “in which A and B are the control levels given by the single [insecticides]. […] Adopting a conservative approach, Applicant determined synergy to be present at ratios of >1.15. […]
In order to determine synergy, rates below normal field rate ranges must be used. If normal field rate ranges are used, all of the larvae would die (combining a lethal or near lethal dose of Bacillus thuringiensis subsp. kurstaki with a lethal dose of chlorantraniliprole would most likely lead to larvae death) in every treatment and synergy would not be able to be determined. […]

In a further assay the test system is cabbage looper larvae. The assay is described as follows: Laboratory leaf dip test on cabbage looper larvae. The assay is classed as in vivo. As to conditions: Trichoplusia ni, foliar, Btk 0.54 ppm, chlorantraniliprole 0.0009 ppm, read-out: % Efficacy. As to the method: as §1, §2, §3
Another assay has as its system soybean looper larvae. Put plainly: Laboratory leaf dip test on soybean looper larvae. As to conditions: foliar, Btk 0.54 ppm, chlorantraniliprole 0.045 μg/ml, read-out: % Efficacy. The assay is classed as in vivo, Chrysodeixis includens. The protocol: as §1, §2, §3
In this study, the response of soybean looper larvae to Bacillus thuringiensis subsp. kurstaki and chlorantraniliprole was observed.
For this species, the same ppm of Bacillus thuringiensis subsp. kurstaki was used, but 0.045 μg/ml was used for chlorantraniliprole.

A further assay deals with corn earworm larvae. The assay is described as follows: Laboratory leaf dip test on corn earworm larvae. The following applies: Helicoverpa zea, foliar, Btk 0.54 ppm, chlorantraniliprole 0.0009 ppm, read-out: % Efficacy. The assay is classed as in vivo. The protocol: as §1, §2, §3
A further assay deals with beet armyworm larvae. Put plainly: Laboratory leaf dip test on beet armyworm larvae. The assay is classed as in vivo. The following applies: Spodoptera exigua, foliar, Btk 0.54 ppm, chlorantraniliprole 0.0009 ppm, read-out: % Efficacy. As to the method: as §1, §2, §3

Like-named read-outs stand apart in the source and are kept apart here.

Regarding `CNC(=O)c1cc(Cl)cc(C)c1NC(=O)c1cc(Br)nn1-c1ncccc1Cl` [Chlorantraniliprole], the Emax at 0.0009 ppm in the assay on sugarcane borer larvae (24 h after treatment) stood at 10%; in the assay on sugarcane borer larvae (48 h after treatment), 10%; in the assay on sugarcane borer larvae (72 h after treatment), 19%; in assay [1], 31%; in the assay on diamondback moth larvae it was 12%; in the assay with cabbage looper larvae (24 h after treatment) it was 46%. For the same compound, the Emax at 0.0009 ppm stood at 46% in the assay with cabbage looper larvae (48 h after treatment); 7% in the assay with corn earworm larvae (24 h after treatment); 20% in the assay with corn earworm larvae (48 h after treatment); 20% with corn earworm larvae (72 h after treatment); 7% in the assay with beet armyworm larvae (24 h after treatment); 17% with beet armyworm larvae (48 h after treatment). Also, in the assay on beet armyworm larvae (72 h after treatment), the Emax at 0.0009 ppm was found to be 30%. The Emax at 0.045 µg/mL with soybean looper larvae (24 h after treatment) is 7%; in the assay with soybean looper larvae (48 h after treatment), 10%; in the assay on soybean looper larvae (72 h after treatment) it was 17%.

Source of the values: US10136647B2, “Synergistic Bacillus thuringiensis subsp. kurstaki and chlorantraniliprole mixtures for diamondback moth, beet armyworm, sugarcane borer, soybean looper and corn earworm control” (priority 2015, dated 2018).
